Experimental data: PubChem BioAssay AID330 (DTP/NCI, 2004)
Several values for one entry are separate records, joined by “and”; a condition that tells them apart may be missing. Equal entries are not always repeated. Toxic doses and inconclusive results are not listed. Rule for the calls: active = survival T/C of 150% or more; inactive = T/C below 125% in these data.

Test system: P388 leukemia ip, CD2F1 mice, survival T/C
Experiment: NCI In Vivo Anticancer Drug Screen. Data for tumor model P388 Leukemia (intraperitoneal) in CD2F1 (CDF1) mice
Conditions: endpoint: median survival time, higher = longer survival
Method in brief: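 Mice carrying the transplanted tumor received test compound or vehicle. Survival was recorded in each group, and the value is the treated-group measurement divided by that of the vehicle-treated control group.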

[1] = dose: 60.0 mg/kg/injection, schedule: Q01DX005 (ip), vehicle: saline with Tween-80
[2] = dose: 120.0 mg/kg/injection, schedule: Q01DX005 (ip), vehicle: saline with Tween-80
[3] = dose: 240.0 mg/kg/injection, schedule: Q01DX005 (ip), vehicle: saline with Tween-80
[4] = dose: 60.0 mg/kg/injection, schedule: Q01DX005 (ip), vehicle: saline
[5] = dose: 120.0 mg/kg/injection, schedule: Q01DX005 (ip), vehicle: saline
[6] = dose: 240.0 mg/kg/injection, schedule: Q01DX005 (ip), vehicle: saline
[7] = dose: 50.0 mg/kg/injection, schedule: Q01DX009 (ip), vehicle: saline
[8] = dose: 100.0 mg/kg/injection, schedule: Q01DX009 (ip), vehicle: saline
[9] = dose: 6.25 mg/kg/injection, schedule: Q01DX005 (ip), vehicle: Klucel (hydroxypropylcellulose) (HPC)
[10] = dose: 12.5 mg/kg/injection, schedule: Q01DX005 (ip), vehicle: Klucel (hydroxypropylcellulose) (HPC)
[11] = dose: 25.0 mg/kg/injection, schedule: Q01DX005 (ip), vehicle: Klucel (hydroxypropylcellulose) (HPC)

Measured: T/C

COc1cccc2c1C(=N)c1c(O)c3c(c(O)c1C2=O)C[C@@](O)(C(C)=O)C[C@@H]3OC1CC(N)C(O)C(C)O1 (some centres not stated)
inactive: dose: 0.75 mg/kg/injection, schedule: Q04DX003 (ip), vehicle: water 112 % of control | dose: 1.5 mg/kg/injection, schedule: Q04DX003 (ip), vehicle: water 118 % of control | dose: 3.0 mg/kg/injection, schedule: Q04DX003 (ip), vehicle: water 124 % of control | dose: 6.0 mg/kg/injection, schedule: Q04DX003 (ip), vehicle: water 123 % of control and 124 % of control | dose: 8.0 mg/kg/injection, schedule: Q01DX009 (ip), vehicle: saline 91 % of control | dose: 8.0 mg/kg/injection, schedule: Q01DX009 (ip), vehicle: water 88 % of control and 94 % of control | dose: 12.0 mg/kg/injection, schedule: Q04DX003 (ip), vehicle: water 102 % of control | dose: 15.0 mg/kg/injection, schedule: Q04DX003 (ip), vehicle: water 98 % of control | dose: 24.0 mg/kg/injection, schedule: Q04DX003 (ip), vehicle: water 123 % of control | dose: 48.0 mg/kg/injection, schedule: Q04DX003 (ip), vehicle: water 116 % of control | dose: 96.0 mg/kg/injection, schedule: Q04DX003 (ip), vehicle: water 98 % of control
active: dose: 0.5 mg/kg/injection, schedule: Q01DX009 (ip), vehicle: water 153 % of control | dose: 1.0 mg/kg/injection, schedule: Q01DX009 (ip), vehicle: saline 158 % of control | dose: 1.0 mg/kg/injection, schedule: Q01DX009 (ip), vehicle: water 153 % of control and 175 % of control | dose: 2.0 mg/kg/injection, schedule: Q01DX009 (ip), vehicle: saline 153 % of control | dose: 2.0 mg/kg/injection, schedule: Q01DX009 (ip), vehicle: water 155 % of control and 186 % of control | dose: 3.24 mg/kg/injection, schedule: Q04DX003 (ip), vehicle: water 150 % of control | dose: 4.0 mg/kg/injection, schedule: Q01DX009 (ip), vehicle: water 150 % of control and 157 % of control | dose: 5.4 mg/kg/injection, schedule: Q04DX003 (ip), vehicle: water 161 % of control | dose: 9.0 mg/kg/injection, schedule: Q04DX003 (ip), vehicle: water 157 % of control

O=S1(=O)CCCN1c1ccccn1
inactive: [1] 102 % of control | [2] 105 % of control | [3] 101 % of control

c1ccc2c(SCCCCSc3c4ccccc4nc4ccccc34)c3ccccc3nc2c1
inactive: [4] 113 % of control | [5] 98 % of control | [6] 89 % of control

O=C1CCCN1C(=O)c1ccccc1
inactive: dose: 18.8 mg/kg/injection, schedule: Q01DX001 (ip), vehicle: saline sonified 105 % of control | dose: 37.5 mg/kg/injection, schedule: Q01DX001 (ip), vehicle: saline sonified 120 % of control | dose: 75.0 mg/kg/injection, schedule: Q01DX001 (ip), vehicle: saline sonified 105 % of control

Cc1c2nc(N)nc-2ccc2[nH]c(N)nc12
inactive: dose: 0.5 mg/kg/injection, schedule: Q01DX009 (ip), vehicle: Klucel (hydroxypropylcellulose) (HPC) 102 % of control | dose: 1.0 mg/kg/injection, schedule: Q01DX009 (ip), vehicle: Klucel (hydroxypropylcellulose) (HPC) 108 % of control | dose: 2.0 mg/kg/injection, schedule: Q01DX009 (ip), vehicle: Klucel (hydroxypropylcellulose) (HPC) 108 % of control | dose: 4.0 mg/kg/injection, schedule: Q01DX009 (ip), vehicle: Klucel (hydroxypropylcellulose) (HPC) 102 % of control

O=c1ccc2cc3c(nc2[nH]1)[nH]c1ccccc13
inactive: dose: 100.0 mg/kg/injection, schedule: Q04DX002 (ip), vehicle: Klucel (hydroxypropylcellulose) (HPC) 101 % of control | dose: 200.0 mg/kg/injection, schedule: Q04DX002 (ip), vehicle: Klucel (hydroxypropylcellulose) (HPC) 99 % of control | dose: 400.0 mg/kg/injection, schedule: Q04DX002 (ip), vehicle: Klucel (hydroxypropylcellulose) (HPC) 101 % of control

CNc1ccc(O)c2c1C(=O)c1ccccc1C2=O
inactive: dose: 25.0 mg/kg/injection, schedule: Q04DX002 (ip), vehicle: saline with Tween-80 93 % of control | dose: 50.0 mg/kg/injection, schedule: Q04DX002 (ip), vehicle: saline with Tween-80 92 % of control | dose: 100.0 mg/kg/injection, schedule: Q04DX002 (ip), vehicle: saline with Tween-80 101 % of control | dose: 200.0 mg/kg/injection, schedule: Q04DX002 (ip), vehicle: saline with Tween-80 109 % of control

CC1=C(C#N)C(=N)OC1(C)C1CC(=O)C=CC1=O (configuration not stated)
inactive: dose: 60.0 mg/kg/injection, schedule: Q01DX005 (ip), vehicle: suspension in saline 119 % of control

O=[N+]([O-])c1cn(CCCNc2c3ccccc3nc3ccccc23)cn1
inactive: [1] 95 % of control | [2] 107 % of control | [3] 112 % of control

COC(=O)C1c2ccccc2CC(=O)N1NC(=O)c1ccccc1 (configuration not stated)
inactive: dose: 50.0 mg/kg/injection, schedule: Q01DX009 (ip), vehicle: Klucel (hydroxypropylcellulose) (HPC) 98 % of control | dose: 100.0 mg/kg/injection, schedule: Q01DX009 (ip), vehicle: Klucel (hydroxypropylcellulose) (HPC) 94 % of control

CC/C(=N\NS(=O)(=O)c1ccc(C)cc1)c1cccc(C#N)c1
inactive: [7] 106 % of control | [8] 96 % of control | dose: 200.0 mg/kg/injection, schedule: Q01DX009 (ip), vehicle: saline 99 % of control

CCc1nc(N)nc(N)c1-c1ccc([N+](C)(C)C)cc1
inactive: [9] 101 % of control | [10] 101 % of control | [11] 103 % of control

CC1=C(CCC(C)CO)OC2CC3C4CCC5CC(O)CCC5(C)C4CCC3(C)C12 (configuration not stated)
inactive: dose: 25.0 mg/kg/injection, schedule: Q01DX009 (ip), vehicle: suspension in saline 90 % of control and 95 % of control | dose: 50.0 mg/kg/injection, schedule: Q01DX009 (ip), vehicle: suspension in saline 96 % of control | dose: 100.0 mg/kg/injection, schedule: Q01DX009 (ip), vehicle: suspension in saline 88 % of control and 94 % of control | dose: 200.0 mg/kg/injection, schedule: Q01DX009 (ip), vehicle: suspension in saline 87 % of control and 89 % of control

O=[N+]([O-])c1ccc([Se]CCBr)c([N+](=O)[O-])c1
inactive: dose: 100.0 mg/kg/injection, schedule: Q04DX003 (ip), vehicle: Klucel (hydroxypropylcellulose) (HPC) 101 % of control | dose: 200.0 mg/kg/injection, schedule: Q04DX003 (ip), vehicle: Klucel (hydroxypropylcellulose) (HPC) 101 % of control

O=C1CP(=O)(O)CC2=C1CCC2
inactive: dose: 25.0 mg/kg/injection, schedule: Q01DX009 (ip), vehicle: saline 96 % of control | [7] 96 % of control | [8] 100 % of control

CCS(=O)O
inactive: [4] 106 % of control | [5] 112 % of control | [6] 112 % of control

COC1/C=C\C=C(/C)C(=O)NC2=CC(=O)C(N)=C(CC(C)CC(OC)C(O)C(C)C=C(C)C1OC(N)=O)C2=O (configuration not stated)
inactive: dose: 0.75 mg/kg/injection, schedule: Q01DX009 (ip), vehicle: saline with Tween-80 103 % of control | dose: 1.5 mg/kg/injection, schedule: Q01DX009 (ip), vehicle: saline with Tween-80 105 % of control | dose: 3.0 mg/kg/injection, schedule: Q01DX009 (ip), vehicle: saline with Tween-80 111 % of control | dose: 6.0 mg/kg/injection, schedule: Q01DX009 (ip), vehicle: saline with Tween-80 87 % of control

COC(=O)/C=C1\C=CC(=O)OC1O (configuration not stated)
inactive: [9] 102 % of control | [10] 103 % of control | [11] 113 % of control

O=S(=O)(Nc1ccccn1)c1ccc(N(CCCl)CCCl)cc1
inactive: dose: 100.0 mg/kg/injection, schedule: Q04DX003 (ip), vehicle: saline with Tween-80 95 % of control | dose: 200.0 mg/kg/injection, schedule: Q04DX003 (ip), vehicle: saline with Tween-80 95 % of control

O=C1C=C(SCCCC(=O)N2CCOCC2)C(=O)c2ccccc21
inactive: dose: 6.25 mg/kg/injection, schedule: Q04DX003 (ip), vehicle: Klucel (hydroxypropylcellulose) (HPC) 107 % of control | dose: 12.5 mg/kg/injection, schedule: Q04DX003 (ip), vehicle: Klucel (hydroxypropylcellulose) (HPC) 104 % of control

CC(C)(O)C1CC(=O)C(C)(C2C(O)CC3(C)C4CC=C5C(CCC(O)C5(C)C)C4(C)C(=O)CC23C)O1 (configuration not stated)
inactive: dose: 9.63 mg/kg/injection, schedule: Q01DX005 (ip), vehicle: saline + alcohol 113 % of control | dose: 19.25 mg/kg/injection, schedule: Q01DX005 (ip), vehicle: saline + alcohol 102 % of control | dose: 38.5 mg/kg/injection, schedule: Q01DX005 (ip), vehicle: saline + alcohol 102 % of control | dose: 77.0 mg/kg/injection, schedule: Q01DX005 (ip), vehicle: saline + alcohol 97 % of control

Nc1nc(-c2ccccc2)c(CC(=O)O)c(-c2nc(N)nc(-c3ccccc3)c2CC(=O)O)n1
inactive: [1] 100 % of control | [2] 100 % of control | [3] 86 % of control
